Data from ChEMBL document CHEMBL1201862, “PubChem BioAssay data set” (2004).
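Cells were grown in 96-well plates and exposed to each compound for 48 hours at five concentrations; endpoints were interpolated linearly between bracketing concentrations, or set to the highest concentration if not reached. Here, GI50 denotes the concentration required for 50% inhibition of growth.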 Calls of active or inactive are those of the source. Cut-off read from the data, not from the text of the source: active = GI50 up to about 1.1 µM and inactive = higher.

Assays:
Assay in all cases: NCI anticancer screen, dose series, 48 h
K562 = tested on: K562
A498 = tested on: A498
KM-20L2 = tested on: KM-20L2
MDA-MB-435 = tested on: MDA-MB-435
SN12C = tested on: SN12C
HCT-116 = tested on: HCT-116
XF498 = tested on: XF498
HL-60 = tested on: HL-60
MDA-MB-231 = tested on: MDA-MB-231
SF-268 = tested on: SF-268
HCC 2998 = tested on: HCC 2998
PC-3 = tested on: PC-3
NCI/ADR-RES = tested on: NCI/ADR-RES
BT-549 = tested on: BT-549
SF-539 = tested on: SF-539
HOP-62 = tested on: HOP-62
Hs-578T = tested on: Hs-578T
HT-29 = tested on: HT-29
HOP-18 = tested on: HOP-18
SNB-78 = tested on: SNB-78

| Structure (SMILES) | GI50 (K562) | GI50 (A498) | GI50 (KM-20L2) | GI50 (MDA-MB-435) | GI50 (SN12C) | GI50 (HCT-116) | GI50 (XF498) | GI50 (HL-60) | GI50 (MDA-MB-231) | GI50 (SF-268) | GI50 (HCC 2998) | GI50 (PC-3) | GI50 (NCI/ADR-RES) | GI50 (BT-549) | GI50 (SF-539) | GI50 (HOP-62) | GI50 (Hs-578T) | GI50 (HT-29) | GI50 (HOP-18) | GI50 (SNB-78) |
| --- | --- | --- | --- | --- | --- | --- | --- | --- | --- | --- | --- | --- | --- | --- | --- | --- | --- | --- | --- | --- |
| COc1ccc2c(c1)[n+]([O-])c(/C(C)=N/NC(N)=S)c(C)[n+]2[O-] | 41.5 µM (inactive) | > 100 µM (inactive) | 39.4 µM (inactive) | 78.3 µM (inactive) | 39.4 µM (inactive) | 39.9 µM (inactive) | 39 µM (inactive) | 1.5 µM (inactive) | 89.7 µM (inactive) | 46.3 µM (inactive) | 20.5 µM (inactive) | > 100 µM (inactive) | 28.8 µM (inactive) | 90.4 µM (inactive) | > 59.8 µM (inactive) | 75.3 µM (inactive) | > 100 µM (inactive) | 52.1 µM (inactive) | 95.1 µM (inactive) | > 100 µM (inactive) |
| CCOC(=O)C(CC(C)C)NC(=O)C(Cc1ccc(N(CCCl)CCCl)cc1)NC(C)=O (stereo not given) | 4.81 µM (inactive) | 15.7 µM (inactive) | 20 µM (inactive) | 3.41 µM (inactive) | 2.45 µM (inactive) | 18.7 µM (inactive) | 0.406 µM (active) | 0.426 µM (active) | 5.86 µM (inactive) | 4.07 µM (inactive) | 13.2 µM (inactive) | 15.8 µM (inactive) | 18.1 µM (inactive) | 6.67 µM (inactive) | 2.18 µM (inactive) | 3.01 µM (inactive) | 5.12 µM (inactive) | 11.7 µM (inactive) | 14 µM (inactive) | 3.93 µM (inactive) |
